The values that follow come from PMC6445106, “Structural and biochemical evidence supporting poly ADP-ribosylation in the bacterium Deinococcus radiodurans” (Nature Communications, 2019).

The structures appear in SMILES notation.

Experiment [1] concerns the target T1, DrPARG (Deinococcus radiodurans, UniProt Q9RZM4, T267K).
T1 construct: gene DR_B0099, pET28a, E. coli BL21(DE3); N-terminal His-tag cut with thrombin, GSHM left at N terminus; monomer, Mr 32 kDa; residues 100-110 GGGFLGGAQAQ
Kind of experiment: isothermal titration calorimetry. As to conditions: 25 °C, 20 mM Tris-HCl pH 7.0, 100 mM NaCl; independent binding model. The source says: (§1) isothermal titration calorimetry on DrPARG

Experiment [2] deals with T2, DrPARG (Deinococcus radiodurans, UniProt Q9RZM4, T267R).
T2 construct: gene DR_B0099, pET28a, E. coli BL21(DE3); N-terminal His-tag cut with thrombin, GSHM left at N terminus; monomer, Mr 32 kDa; residues 100-110 GGGFLGGAQAQ
Kind of experiment: isothermal titration calorimetry. The conditions noted are these: 25 °C, 20 mM Tris-HCl pH 7.0, 100 mM NaCl; independent binding model.
Source text: as §1

For experiment [3], the target named is T3, DrPARG (Deinococcus radiodurans, UniProt Q9RZM4, E112A).
T3 construct: gene DR_B0099, pET28a, E. coli BL21(DE3); N-terminal His-tag cut with thrombin, GSHM left at N terminus; monomer, Mr 32 kDa; residues 100-110 GGGFLGGAQAQ
Kind of experiment: isothermal titration calorimetry. The conditions noted are these: 25 °C, 20 mM Tris-HCl pH 7.0, 100 mM NaCl; independent binding model.
Source text: as §1

The target in experiment [4] is T4, DrPARG (Deinococcus radiodurans, UniProt Q9RZM4).
T4 construct: gene DR_B0099, pET28a, E. coli BL21(DE3); N-terminal His-tag cut with thrombin, GSHM left at N terminus; monomer, Mr 32 kDa; residues 100-110 GGGFLGGAQAQ
T4 sequence (Q9RZM4 1-285): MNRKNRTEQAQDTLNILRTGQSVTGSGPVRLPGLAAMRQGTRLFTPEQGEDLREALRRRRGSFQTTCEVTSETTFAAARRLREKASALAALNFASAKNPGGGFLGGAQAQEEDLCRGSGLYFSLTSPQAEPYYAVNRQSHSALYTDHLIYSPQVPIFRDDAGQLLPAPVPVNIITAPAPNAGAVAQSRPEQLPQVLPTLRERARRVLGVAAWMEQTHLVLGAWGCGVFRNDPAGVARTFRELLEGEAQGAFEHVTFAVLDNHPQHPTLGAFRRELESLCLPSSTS
Kind of experiment: isothermal titration calorimetry. As to conditions: 25 °C, 20 mM Tris-HCl pH 7.0, 100 mM NaCl; independent binding model; complex also as PDB 5ZDC, 5ZDD, 5ZDE.
Source text: as §1

Experiment [5] addresses T4, DrPARG. Kind of experiment: CD thermal denaturation at […] nm. It is filed as binding. As to conditions: 10 µM protein, 30 µM ADP-ribose, 20 mM phosphate pH 7.5; printed as "increased Tm by 46.5 °C", read as Tm of complex.

T3 sequence (Q9RZM4 entry or part of it E112A): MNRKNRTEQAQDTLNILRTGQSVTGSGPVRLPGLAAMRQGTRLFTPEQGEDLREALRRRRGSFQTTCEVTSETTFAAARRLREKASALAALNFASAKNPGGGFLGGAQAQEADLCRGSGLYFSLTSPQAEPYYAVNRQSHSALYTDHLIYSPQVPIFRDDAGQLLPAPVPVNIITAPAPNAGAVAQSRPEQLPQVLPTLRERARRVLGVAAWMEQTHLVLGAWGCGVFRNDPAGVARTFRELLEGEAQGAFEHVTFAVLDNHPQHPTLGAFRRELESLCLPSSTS
T1 sequence (Q9RZM4 entry or part of it T267K): as the sequence (Q9RZM4 entry or part of it E112A) above, with A112E, T267K counted along it
T2 sequence (Q9RZM4 entry or part of it T267R): as the sequence (Q9RZM4 entry or part of it E112A) above, with A112E, T267R counted along it

With `Nc1ncnc2c1ncn2[C@@H]1O[C@H](COP(=O)(O)OP(=O)(O)OC[C@H]2OC(O)[C@H](O)[C@@H]2O)[C@@H](O)[C@H]1O` (some centres unmarked) [ADP-ribose], the dissociation constant Kd on DrPARG [1] came out at 1980 ± 20 nM; at DrPARG [2], 3760 ± 470 nM; on DrPARG [3] it was 2020 ± 70 nM; on DrPARG [4], 1780 ± 50 nM. Besides, the “Tm with ligand (apo 45.2)” value on DrPARG [5] is 46.5 °C.
